In experiment [1] the test system is RF/6A. Description: Antiproliferative activity in rhesus monkey RF/6A cells measured after 24 to 72 hrs by MTT assay. The experiment is classed as functional, cell-based. The conditions noted are these: Macaca mulatta.
Experiment [2] concerns RF/6A. Description: Antimigratory activity in rhesus monkey RF/6A cells measured after 24 hrs by wound assay. The experiment is classed as functional, cell-based. The conditions noted are these: Macaca mulatta.
Experiment [3] in a line: Antiproliferative activity against bFGF-stimulated BBEC by Coulter particle counter method. The format is functional, Bos taurus.
Experiment [4] concerns HUVEC. Nature of the experiment: Antimigratory activity in HUVEC assessed as inhibition of cell migration measured after 16 to 20 hrs by crystal violet staining-based microscopic analysis. The experiment is classed as functional. The following applies: Homo sapiens.
In experiment [5] the test system is HUVEC. Description: Cytotoxicity in HUVEC assessed as reduction in cell viability measured after 24 hrs by MTT assay. The experiment is classed as cell-based. The conditions noted are these: Homo sapiens. (Formazan colour is commonly taken as a measure of viable cells.)
Experiment [6] relates to HUVEC. Description: Antiproliferative activity in HUVEC assessed as reduction in cell viability measured after 72 hrs by MTT assay. The experiment is classed as functional, cell-based. The following applies: Homo sapiens.
The subject of experiment [7] is HUVEC. Description: Antimigratory activity in HUVEC assessed as inhibition of cell migration at 10 uM measured after 16 to 20 hrs by crystal violet staining-based microscopic analysis. The experiment is classed as functional. The conditions noted are these: Homo sapiens.

Active and inactive are the calls of the source. The rule behind the calls is not given here.

By IC50 is commonly meant the concentration that inhibits the measured activity by half. Regarding `O=c1c(O)c(-c2ccc(O)c(O)c2)oc2cc(O)cc(O)c12` [QUERCETIN], the IC50 in experiment [1] was 70 µM; in experiment [2] it was 40 µM; in experiment [3], 5.4 µM.

For `COc1cc(C2Oc3cc(-c4oc5cc(O)cc(O)c5c(=O)c4OC)ccc3OC2CO)ccc1O` (stereo not drawn), the concentration for half-maximal inhibition (IC50) in experiment [4] was determined as 11.3 µM; in experiment [5], 22.5 µM; in experiment [6], 4.9 µM. The inhibition entry in experiment [7] was “Active”.

As to `COc1cc(C2Oc3cc(-c4oc5cc(O)cc(OC)c5c(=O)c4O)ccc3OC2CO)ccc1O` (stereo not drawn), the half-maximal inhibitory concentration (IC50) in experiment [4] amounted to 11.1 µM; in experiment [5], 62.4 µM; in experiment [6], 6.2 µM. Moreover, in experiment [7], the inhibition result was “Active”.

Regarding `COc1cc(O)c2c(=O)c(O)c(-c3ccc4c(c3)OC(c3ccc(O)c(OC)c3)C(CO)O4)oc2c1` (stereo not drawn), the results for the IC50 in experiment [4], in experiment [5] and in experiment [6] were 10.4 µM, 15.2 µM and 6.7 µM, respectively. The inhibition result in experiment [7] was “Active”.

In the case of `COc1cc(C2Oc3cc(-c4oc5cc(OC(=O)c6cc(O)c(O)c(O)c6)cc(O)c5c(=O)c4O)ccc3OC2CO)ccc1O` (stereo not drawn), the IC50 stood at 4.7 µM in experiment [4], 3.4 µM in experiment [5] and 1.6 µM in experiment [6]. Besides, the inhibition entry in experiment [4] was “Dose-dependent effect”. The inhibition entry in experiment [7] is “Active”.

Consider `COc1cc(C2Oc3cc(-c4oc5cc(O)cc(O)c5c(=O)c4O)ccc3OC2CO)ccc1O` (stereo not drawn) [DEHYDROSILYLBIN], for which the IC50 in experiment [4] was 12.2 µM; in experiment [5], 12 µM; in experiment [6] it was 5.4 µM. In addition, the inhibition entry in experiment [7] was “Active”.

Take `COc1cc(O)c2c(=O)c(OC)c(-c3ccc4c(c3)OC(c3ccc(O)c(OC)c3)C(CO)O4)oc2c1` (stereo not drawn): the IC50 in experiment [4] was found to be 49.9 µM; in experiment [5] it was 43.1 µM; in experiment [6], 8.3 µM. Moreover, the inhibition result in experiment [7] is “Active”.

`O=c1cc(-c2ccc(O)c(O)c2)oc2cc(OC3O[C@H](CO)[C@@H](O)[C@H](O)[C@H]3O)cc(O)c12` (stereo partly drawn) registered a half-inhibitory concentration (IC50) in experiment [3] of 18 µM.

Consider `COCC1Oc2ccc(-c3oc4cc(O)cc(O)c4c(=O)c3O)cc2OC1c1ccc(O)c(OC)c1` (stereo not drawn), for which the results for the IC50 in experiment [4], in experiment [5] and in experiment [6] were 10.5 µM, 28.3 µM and 5.3 µM, respectively. Moreover, the inhibition entry in experiment [7] is “Active”.

In experiment [3], `O=c1cc(-c2ccc(O)c(O)c2)oc2cc(O)cc(O)c12` [LUTEOLIN] returned an IC50 of 1.9 µM.

With `COc1cc(C2Oc3cc(-c4oc5cc(O)cc(O)c5c(=O)c4OC(=O)c4cc(O)c(O)c(O)c4)ccc3OC2CO)ccc1O` (stereo not drawn), the values for the IC50 in experiment [4], in experiment [5] and in experiment [6] were 36.8 µM, 18.9 µM and 11.7 µM, respectively. In experiment [7], the inhibition result was “Active”.

The values are drawn from ChEMBL document CHEMBL4477189, “Effects of 2,3-Dehydrosilybin and Its Galloyl Ester and Methyl Ether Derivatives on Human Umbilical Vein Endothelial Cells” (J Nat Prod, 2016).
